Measurements reported in patent publication US20240277739A1, “NUTRITONAL COMPOSITIONS FOR GUT BARRIER FUNCTION” (N.V. Nutricia, priority 2021, published 2024).

Columns and labels:
[1] = system: T84 human intestinal epithelial cells; assay: TEER of T84 monolayers pre-incubated with fatty acids, SCFA mix or combination; assay type: cell-based; conditions: for % TEER (24 h): relative to medium control at 24 h; for increase of gut barrier function (TEER) versus control: fatty acid 50 μM in combination with SCFA 40 mM; for increase of gut barrier function (TEER) versus control / change of gut barrier function (TEER) versus control: 24 h; for increase of gut barrier function expected for an additive effect: fatty acid 50 μM plus SCFA 40 mM; for change of gut barrier function (TEER) versus control: single ingredient: fatty acid 50 μM or SCFA mix 40 mM
From the text: The effect of palmitic acid and oleic acid combined with a mixture of short chain fatty acids (SCFA mix) having a concentration profile that is typical for fermentation of a mixture of galacto-oligosaccharides (GOS) derived from VivinalGOS and long chain fructo-oligosaccharides (RaftilineHP) in a ratio of 9/1 (w/w) on barrier permeability was investigated. The concentration profiles of SCFA is as disclosed in Example 3 of EP2100520 (incorporated by reference herein), specifically as shown in FIG. 3A of EP2100520 (incorporated by reference herein) (see second bar in FIG. 3A), i.e. about 75% being acetic acid. Oleic acid and palmitic acid were obtained from Sigma-Aldrich and coupled to fatty acid free Bovine Serum Albumin (BSA, Sigma-Aldrich) prior to cell treatment.
T84 human intestinal epithelial cells are commonly used to study intestinal barrier integrity in vitro. T84 cells (ATCC, USA) were cultured on 12 mm transwell inserts (0.4 μm, Corning Costrar, USA) in DMEM-F12 glutamax with penicillin-streptomycin (100 IU/ml), supplemented with […]. T84 cells were used 14 days after reaching confluence. Monolayers of T84 cultured on transwell filters were pre-incubated with fatty acids, SCFA mix or a combination thereof for a period of 24 hours.
Epithelial barrier integrity was assessed by measuring transepithelial resistance (TEER; Ω×cm^2) with the epithelial volt-ohm meter (Millicell ERS-2; Millipore USA). TEER measurements were performed at 0, 24, h of incubation. TEER values of the fatty acids (i.e. SCFA, OA, PA) are expressed relative to the medium control TEER values at 24 h.

Caco-2 cell monolayer [2] = assay: TEER of Caco-2 monolayer, DON-induced impairment of barrier integrity; assay type: cell-based, human; conditions: for TEER in the presence of DON (FIG. 3), single ingredient, in words: DON 4.2 μM, 0.75 wt % beta3′-GL or 600 μM fatty acid alone; for effect on DON-induced loss of epithelial barrier integrity, TEER (FIGS. 1A, 1B), in words: 0.75 wt. % GL, 24 h pretreatment, then DON 4.2 μM 24 h
Protocol: (§1) beta1,3′-galactosyl-lactose (beta3′-GL), beta1,4′-galactosyllactose (beta4′-GL) and beta1,6′-galactosyl-lactose (beta6′-GL) were obtained from Carbosynth (Berkshire, UK), alpha1,3′-galactosyl-lactose (alpha3′-GL) was obtained from Elicityl (Crolles, France). Purified deoxydivalenol (DON) (D0156; Sigma Aldrich, St Luis, MO, USA) was dissolved in pure ethanol and stored at −20° C. Human epithelial colorectal adenocarcinoma (Caco-2) cells were obtained from American Type Tissue Collection (Code HTB-37) (Manasse, VA, USA, passage 90-102).
(§2) Caco-2 cells were used according to established methods. In brief: cells were cultured in Dulbecco's modified Eagle medium (DMEM) and seeded at a density of 0.3×10^5 cells into 0.3 cm^2 high pore density (0.4 μm) inserts with a polyethylene terephthalate membrane (BD Biosciences, Franklin Lakes, NJ, USA) placed in a 24-well plate. The Caco-2 cells were maintained in a humidified atmosphere of 95% air and 5% CO2 at 37° C. After 17-19 days of culturing, a confluent monolayer was obtained with a mean Transepithelial electrical resistance (TEER) exceeding 400 Ω cm^2 measured by a Millicell-Electrical Resistance System voltohm-meter (Millipore, Temecula, CA, USA).
(§3) Caco-2 cell monolayers were thus grown in a transwell system, which is a model for intestinal barrier function. The monolayers were pretreated for 24 h with different GLs, including beta3′-GL, alpha3′-GL, beta4′-GL and beta6′-GL in a concentration of 0.75 wt. % of the GL, before being exposed to the fungal toxin deoxynivalenol (DON), which is a trigger and model compound to impair intestinal barrier. DON was diluted to a final concentration of 4.2 μM in complete cell medium and added to the apical side as well as to the basolateral side of the transwell inserts. […] Incubation with DON was 24 h.
(§4) Measurements of the transepithelial electrical resistance (TEER) and lucifer yellow (LY) permeability were conducted to investigate barrier integrity. For TEER measurements a Millicel-ERS voltohmmeter connected to a pair of chopsticks electrodes was used to measure the TEER values. Results are expressed as a percentage of the initial value. For paracellular tracer flux assay the membrane impermeable lucifer yellow (LY) (Sigma, St Luis, MO, USA) was added in a concentration of 16 μg/ml to the apical compartment in the transwell plate for 4 h, and the paracellular flux was determined by measuring the fluorescence intensity in the basolateral compartment with a spectrophotofluorimeter (FLUOstar Optima, BMG Labtech, Offenburg, Germany) set at excitation and emission wavelengths of 410 and 520 nm, respectively. Release of interleukin-8 (IL-8 or CXCL8), which is a typical marker for inflammation, was quantified in the medium of the apical side and the basolateral side of the Caco-2 transwell inserts in response to the treatments. CXCL8 concentrations were measured by using the human IL-8 ELISA assay (BD Biosciences, Pharmingem, San Diego, CA, USA) according to manufacturer's instructions. For more details on materials and methods see Akbari et al, 2016, Eur J Nutr. 56(5):1919-1930.
(§5) For TOS concentrations of 0.25 wt. % (TOS 0.25) and 0.5 wt. % (TOS 0.5) were tested.
(§6) Barrier function experiments were performed using the method as described in example 3. Oleic acid (OA) and palmitic acid were obtained from Sigma-Aldrich. Palmitic acid was coupled to fatty acid free Bovine Serum Albumin (BSA, Roche) to make a 6:1 BSA-palmitic acid conjugate solution, which is needed to dissolve palmitic acid in culture medium and therefore common practice in the field (reference Alsabeeh et al, Biochim. Biophys Acta. 2018 February; 1863(2): 143-151). Throughout this document this conjugate solution will be abbreviated as PA.

Caco-2 cell monolayer [3] = assay: Lucifer yellow (LY) paracellular flux across Caco-2 monolayer, DON-induced impairment; assay type: cell-based, human; conditions: for effect on DON-induced loss of epithelial barrier integrity, LY flux (FIGS. 1C, 1D), in words: 0.75 wt. % GL, 24 h pretreatment, then DON 4.2 μM 24 h
Protocol: as §1, §2, §3, §4, §5
Barrier function experiments were performed using the method as described in example 3. Oleic acid (OA) and palmitic acid were obtained from Sigma-Aldrich. […]

Caco-2 cell monolayer [4] = assay: TEER of Caco-2 monolayer with OA, PA, beta3′-GL and combinations (no DON); assay type: cell-based, human; conditions: for effect on TEER at 100 μM fatty acid, in words: data not shown
Protocol: as §2, §4, §6
Tables 5a and 5b show the effects of OA and PA and beta3′-GL and its combinations on the intestinal barrier function as measured by TEER.

[5] = system: interleukin-8 (IL-8 or CXCL8) release; assay: DON-induced IL-8 (CXCL8) release from Caco-2 cells, ELISA; assay type: cell-based, human; conditions: DON 4.2 μM alone
Protocol: as §1
Caco-2 cells were used according to established methods. […] After 17-19 days of culturing, a confluent monolayer was obtained with a mean Transepithelial electrical resistance (TEER) exceeding 400 Ω cm^2 measured by a Millicell-Electrical Resistance System voltohm-meter (Millipore, Temecula, CA, USA). […]
Measurements of the transepithelial electrical resistance (TEER) and lucifer yellow (LY) permeability were conducted to investigate barrier integrity. […] Results are expressed as a percentage of the initial value. […] Release of interleukin-8 (IL-8 or CXCL8), which is a typical marker for inflammation, was quantified in the medium of the apical side and the basolateral side of the Caco-2 transwell inserts in response to the treatments. […]

[6] = system: infant microbiota (pooled fecal samples from 3 healthy infants); assay: Fermentation of galactosyllactoses by infant fecal microbiota (i-Screen anaerobic colon model); parameters: species or system human; acetate / lactate: unit not given here; conditions: for acetate / lactate: t = 24 h
Protocol: The effect of pure 3′-GL, 4′-GL, and 6′-GL of the three galactosyllactoses functionality (pH, lactate, acetate levels) was evaluated. Beta1,3-galactosyllactose (beat3′-GL), beta1,4-galactosyllactose (beta4′-GL) and beta1,6-galactosyllactose (beta6′-GL) were obtained from Carbosynth (Berkshire, UK) Measurements of all parameters were performed after a 24-hour incubation in the high-throughput anaerobic colon model, i-Screen™ (TNO, Zeist, the Netherlands).
Fecal samples from 3 healthy infants (aged 1-4 months) were pooled and activated for 4 hours in a modified standard ileal efflux medium (pH 6.0) at 37° C. under anaerobic conditions. Next, each GL was added. After an incubation for 24 hours at 37° C. under anaerobic conditions, samples were collected for further analysis and pH levels were immediately measured using a pH meter MultiCal pH 526 (WTW, Weilheim, Germany). The samples were centrifuged at 4,000 g for 5 minutes and the supernatant was filter sterilized using 0.45 μm filters. For the SCFA analysis, a mixture of formic acid ([…]), methanol and 2-ethyl butyric acid (internal standard, 2 mg/ml in methanol) was added to the filtered supernatant. A 3 μl sample with a split ratio of 75.0 was injected on a GC-column (ZB-5HT inferno, ID 0.52 mm, film thickness 0.10 μm; Zebron; phenomenex, USA) in a Shimadzu GC-2014 gas chromatograph. The levels of acetic acid and lactic acid were measured. For lactate analysis, the total of D- and L-lactate was determined the filtered supernatant by the Arena 20XL analyser. This assay is based on the D- and L-lactic acid assay kits (Thermo Fisher Scientific oy, www.e-labeling.eu/TSF9843061FU and www.e-labeling.eu/TSF9843081FU). The assay was performed following the manufacturer's instructions with one adaptation: the reagents DLac RI and LLac RI from the two kits were mixed in a 1:1 ratio to detect both L and D isomers of lactic acid simultaneously. Calibration of the assay was done with an ‘Acid combination standard’ (order number 984382) containing both L-lactic acid and D-lactic acid.

[7] = fatty acid 50 μM + SCFA mix 40 mM
[8] = fatty acid 50 μM, SCFA mix 0 mM

Compound	TEER in the presence of DON (FIG. 3), single ingredient, in words (Caco-2 cell monolayer [2])	acetate ([6]; 3 mg/ml)	lactate ([6]; 3 mg/ml)	acetate ([6]; 9 mg/ml)	lactate ([6]; 9 mg/ml)	effect on DON-induced loss of epithelial barrier integrity, TEER (FIGS. 1A, 1B), in words (Caco-2 cell monolayer [2])	effect on DON-induced loss of epithelial barrier integrity, LY flux (FIGS. 1C, 1D), in words (Caco-2 cell monolayer [3])	further results
CCCCCCCCCCCCCCCC(=O)O [PA, palmitic acid]	did not improve the TEER in the presence of DON	–	–	–	–	–	–	% TEER (24 h) [1, 7]: 143%; increase of gut barrier function (TEER) versus control [1]: 43%; increase of gut barrier function expected for an additive effect [1]: 54%; % TEER (24 h) [1, 8]: 94%; change of gut barrier function (TEER) versus control [1]: −6%; gut barrier function by LYF assay, fatty acid alone, in words (Caco-2 cell monolayer [3]; DON model, data not shown): A similar effect was observed; effect on TEER at 100 μM fatty acid, in words (Caco-2 cell monolayer [4]): This effect on TEER was also observed; % TEER (24 h) (Caco-2 cell monolayer [4]; Table 5b: palmitic acid 600 μM, 3′GL 0): 69%
CC1=C[C@H]2O[C@@H]3[C@H](O)C[C@](C)([C@@]2(CO)[C@H](O)C1=O)[C@]31CO1 [DON, deoxynivalenol]	–	–	–	–	–	–	–	CXCL8 (IL-8) release (FIG. 2), in words [5]: increased CXCL8 (IL-8) release
CCCCCCCC/C=C\CCCCCCCC(=O)O [OA, oleic acid]	somewhat higher than in the control	–	–	–	–	–	–	% TEER (24 h) [1, 7]: 210%; increase of gut barrier function (TEER) versus control [1]: 110%; increase of gut barrier function expected for an additive effect [1]: 94%; % TEER (24 h) [1, 8]: 134%; change of gut barrier function (TEER) versus control [1]: 34%; effect on TEER at 100 μM fatty acid, in words (Caco-2 cell monolayer [4]): improving effect on TEER was also observed; % TEER (24 h) (Caco-2 cell monolayer [4]; Table 5a: oleic acid 600 μM, beta3′GL 0, relative to the medium control): 138%
Gal (beta 1-3)-Gal (beta 1-4)-Glc [beta3′-GL]	somewhat higher than in the control	61.3	0.0	77.1	1.3	increased TEER values	reduction in the DON-affected LY flux	pH, acetate and lactate after fermentation, in words ([6]; 24 h incubation): the highest levels of acetate and lactate and the lowest pH level; beta3′-GL concentration at which the effect on gut barrier function is observed (Caco-2 cell monolayer [2]; beta3′-GL content of the TOS tested, DON model): lower than 0.17 wt. %; % TEER (24 h) (Caco-2 cell monolayer [4]; Table 5a: beta3′GL 0.75 w/v %, oleic acid 0, relative to the medium control): 117%; % TEER (24 h) (Caco-2 cell monolayer [4]; Table 5b: 3′GL 0.75, palmitic acid 0): 129%
OC[C@H]1O[C@@H](O[C@@H]2[C@H](O)[C@@H](O)[C@H](O[C@H]3[C@H](O)[C@@H](O)C(O)O[C@@H]3CO)O[C@@H]2CO)[C@H](O)[C@@H](O)[C@H]1O (stereo partly drawn) [beta4′-GL, Gal (beta 1-4)-Gal (beta 1-4)-Glc]	–	52.2	0.0	65.4	3.6	did not show a significant effect	did not show a significant effect	–
OC[C@H]1O[C@H](O[C@H]2[C@@H](O)[C@@H](CO)O[C@@H](O[C@H]3[C@H](O)[C@@H](O)C(O)O[C@@H]3CO)[C@@H]2O)[C@H](O)[C@@H](O)[C@H]1O (stereo partly drawn) [alpha3′-GL, Gal (alpha 1-3)-Gal (beta 1-4)-Glc]	–	–	–	–	–	did not prevent the DON-induced disrupted intestinal barrier	did not prevent the DON-induced disrupted intestinal barrier	–
OC[C@H]1O[C@@H](OC[C@H]2O[C@@H](O[C@H]3[C@H](O)[C@@H](O)C(O)O[C@@H]3CO)[C@H](O)[C@@H](O)[C@H]2O)[C@H](O)[C@@H](O)[C@H]1O (stereo partly drawn) [beta6′-GL, Gal (beta 1-6) Gal (beta 1-4)-Glc]	–	51.9	0.0	74.3	2.7	did not show a significant effect	did not show a significant effect	–
